# Molecular target: T1, RORc ligand binding domain (Homo sapiens, UniProt P51449)
# T1 construct: host or cells: E. coli
# T1 sequence (P51449 269-508 limits assumed): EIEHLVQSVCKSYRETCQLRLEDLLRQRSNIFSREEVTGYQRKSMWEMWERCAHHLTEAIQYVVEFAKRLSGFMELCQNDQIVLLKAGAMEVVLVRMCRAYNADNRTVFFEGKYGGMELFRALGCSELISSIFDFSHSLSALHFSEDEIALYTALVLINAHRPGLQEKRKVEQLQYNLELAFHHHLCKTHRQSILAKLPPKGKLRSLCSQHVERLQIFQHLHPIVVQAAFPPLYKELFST
# Experiment: In vitro RORc ligand binding assay (25-[3H]hydroxycholesterol displacement, filter binding)
# Details: 6 nM 25-[3H]hydroxycholesterol, 0.6 ug/mL RORc receptor, 3 h at 25° C.
# Method in brief: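 Filter-binding displacement of 6 nM 25-[3H]hydroxycholesterol from RORc receptor (0.6 ug/mL) in 50 mM HEPES pH 7.4, 150 mM NaCl, 5 mM MgCl2, 1 mM DTT, 0.01% BSA, 5% DMSO; 3 h at 25° C. NSB defined with 1 uM 25-hydroxycholesterol; scintillation counting gave Kiapp, IC50 or % inhibition (screening at 1 and 10 uM).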
row,Structure (SMILES),IC50
1,"CC1(C)[C@H]2C(=O)C[C@]1(C)c1nnc(-c3ccccc3F)cc12 [Example 127, (5R,8S)-3-(2-fluorophenyl)-8,9,9-trimethyl-7,8-dihydro-5,8-methanocinnolin-6(5H)-one]",1.7 µM
2,"CN(C)C(=O)[C@@]12CC[C@@H](c3cc(-c4c(F)cccc4F)nnc31)C2(C)C [Example 82, (5R,8R)-3-(2,6-difluorophenyl)-N,N,9,9-tetramethyl-6,7-dihydro-5,8-methanocinnoline-8(5H)-carboxamide]",0.856 µM
3,"CNC(=O)C[C@]12CC[C@H](c3cc(-c4ccccc4F)nnc31)C2(C)C [Example 37, 2-[(5S,8S)-3-(2-fluorophenyl)-9,9-dimethyl-6,7-dihydro-5,8-methanocinnolin-8(5H)-yl]-N-methylacetamide]",0.88 µM
4,"CC1(C)[C@H]2CC[C@]1(CN1CCCC1=O)c1nnc(-c3c(F)cccc3F)cc12 [Example 273, 1-(((5R,8S)-3-(2,6-difluorophenyl)-9,9-dimethyl-5,6,7,8-tetrahydro-5,8-methanocinnolin-8-yl)methyl)pyrrolidin-2-one]",0.453 µM
5,"CCNC[C@@]12CC[C@@H](c3cc(-c4c(F)cccc4F)nnc31)C2(C)C [Example 331, N-(((5R,8S)-3-(2,6-difluorophenyl)-9,9-dimethyl-5,6,7,8-tetrahydro-5,8-methanocinnolin-8-yl)methyl)ethanamine]",0.877 µM
6,"CC1(C)[C@H]2CC[C@]1(Cc1noc(CO)n1)c1nnc(-c3c(F)cccc3F)cc12 [Example 61, (3-{[(5R,8R)-3-(2,6-difluorophenyl)-9,9-dimethyl-6,7-dihydro-5,8-methanocinnolin-8(5H)-yl]methyl}-1,2,4-oxadiazol-5-yl)methanol]",0.323 µM
7,"CC1(C)[C@@H]2CC[C@@]1(N1CCNC1=O)c1nnc(-c3c(F)cccc3F)cc12 [Example 252, 1-((5S,8S)-3-(2,6-difluorophenyl)-9,9-dimethyl-5,6,7,8-tetrahydro-5,8-methanocinnolin-8-yl)imidazolidin-2-one]",1.58 µM
8,"COC1CN(C(=O)[C@@]23CC[C@@H](c4cc(-c5c(F)cccc5F)nnc42)C3(C)C)C1 [Example 188, ((5R,8R)-3-(2,6-difluorophenyl)-9,9-dimethyl-5,6,7,8-tetrahydro-5,8-methanocinnolin-8-yl)(3-methoxyazetidin-1-yl)methanone]",2.46 µM
9,"CC1(C)[C@H]2CC[C@]1(C#N)c1nnc(-c3c(F)cccc3F)cc12 [Example 78, (5R,8R)-3-(2,6-difluorophenyl)-9,9-dimethyl-6,7-dihydro-5,8-methanocinnoline-8(5H)-carbonitrile]",0.925 µM
10,CC(=O)OCC1(C)[C@@H]2CC[C@@]1(C)c1nnc(-c3ccccc3F)cc12 (stereo partly shown),2.46 µM
11,"CC1(C)[C@@H]2CC[C@@]1(C#N)c1nnc(-c3ccccc3F)cc12 [Example 52, (5S,8S)-3-(2-fluorophenyl)-9,9-dimethyl-6,7-dihydro-5,8-methanocinnoline-8(5H)-carbonitrile]",1.53 µM
12,"CC1(C)[C@@H]2CC[C@@]1(CN1CCN(CCN3CCOCC3)C1=O)c1nnc(-c3ccccc3F)cc12 [Example 48, 1-{[(5S,8R)-3-(2-fluorophenyl)-9,9-dimethyl-6,7-dihydro-5,8-methanocinnolin-8(5H)-yl]methyl}-3-[2-(morpholin-4-yl)ethyl]imidazolidin-2-one]",0.643 µM
13,"CNC(=O)[C@@H]1[C@@H]2CN(C(=O)[C@]34CC[C@H](c5cc(-c6c(F)cccc6F)nnc53)C4(C)C)C[C@@H]21 [Example 212, (1R,5S,6R)-3-((5S,8S)-3-(2,6-difluorophenyl)-9,9-dimethyl-5,6,7,8-tetrahydro-5,8-methanocinnoline-8-carbonyl)-N-methyl-3-azabicyclo[3.1.0]hexane-6-carboxamide]",2.14 µM
14,"CC1(C)[C@@H]2CC(=O)[C@@]1(C)c1nnc(-c3ccccc3F)cc12 [Example 50, (5S,8R)-3-(2-fluorophenyl)-8,9,9-trimethyl-5,8-dihydro-5,8-methanocinnolin-7(6H)-one]",2.42 µM
15,"CC1(C)[C@H]2CC[C@]1(c1ncn[nH]1)c1nnc(-c3c(F)cccc3F)cc12 [Example 185, (5R,8R)-3-(2,6-difluorophenyl)-9,9-dimethyl-8-(1H-1,2,4-triazol-5-yl)-5,6,7,8-tetrahydro-5,8-methanocinnoline]",2.2 µM
16,"CN(C)C1CN(C(=O)[C@]23CC[C@H](c4cc(-c5c(F)cccc5F)nnc42)C3(C)C)C1 [Example 79, [(5S,8S)-3-(2,6-difluorophenyl)-9,9-dimethyl-6,7-dihydro-5,8-methanocinnolin-8(5H)-yl][3-(dimethylamino)azetidin-1-yl]methanone]",1.12 µM
17,"CC1(C)[C@@H]2CC[C@@]1(C(=O)NC1CCC1)c1nnc(-c3c(F)cccc3F)cc12 [Example 201, (5S,8S)-N-cyclobutyl-3-(2,6-difluorophenyl)-9,9-dimethyl-5,6,7,8-tetrahydro-5,8-methanocinnoline-8-carboxamide]",0.759 µM
18,"CC1(C)[C@H]2CC[C@]1(C(=O)NC1CCC1)c1nnc(-c3ccccc3F)cc12 [Example 177, (5R,8R)-N-cyclobutyl-3-(2-fluorophenyl)-9,9-dimethyl-5,6,7,8-tetrahydro-5,8-methanocinnoline-8-carboxamide]",1.5 µM

# Now those with a lower IC50, led by results:
row,IC50,Structure (SMILES)
1,0.226 µM,"CC1(C)[C@H]2CC[C@]1(CN(CCO)C(N)=O)c1nnc(-c3c(F)cccc3F)cc12 [Example 283, 1-(((5R,8S)-3-(2,6-difluorophenyl)-9,9-dimethyl-5,6,7,8-tetrahydro-5,8-methanocinnolin-8-yl)methyl)-1-(2-hydroxyethyl)urea]"
2,0.008 µM,"Cn1c([C@@]23CC[C@@H](c4cc(-c5c(F)cccc5F)nnc42)C3(C)C)cccc1=O [Example 165, 6-((5R,8S)-3-(2,6-difluorophenyl)-9,9-dimethyl-5,6,7,8-tetrahydro-5,8-methanocinnolin-8-yl)-1-methylpyridin-2(1H)-one]"
3,0.015 µM,"CC(=O)OC[C@]12CC[C@H](c3cc(-c4c(F)cccc4Cl)nnc31)C2(C)C [Example 22, [(5S,8S)-3-(2-chloro-6-fluorophenyl)-9,9-dimethyl-6,7-dihydro-5,8-methanocinnolin-8(5H)-yl]methyl acetate]"
4,0.008 µM,"CC1(C)[C@H]2CC[C@]1(C(=O)N1CC3CC3C1)c1nnc(-c3c(F)cccc3F)cc12 (stereo partly drawn) [Example 147, 3-azabicyclo[3.1.0]hexan-3-yl((5R,8R)-3-(2,6-difluorophenyl)-9,9-dimethyl-5,6,7,8-tetrahydro-5,8-methanocinnolin-8-yl)methanone]"
5,0.142 µM,"CC1(C)[C@@H]2CC[C@@]1(C(=O)N1CCC(C(F)(F)F)C1)c1nnc(-c3c(F)cccc3F)cc12 (stereo partly drawn) [Example 208, ((5S,8S)-3-(2,6-difluorophenyl)-9,9-dimethyl-5,6,7,8-tetrahydro-5,8-methanocinnolin-8-yl)(3-(trifluoromethyl)pyrrolidin-1-yl)methanone]"
6,0.045 µM,"CCOC(=O)N(CCC#N)C[C@@]12CC[C@@H](c3cc(-c4c(F)cccc4F)nnc31)C2(C)C [Example 312, ethyl (2-cyanoethyl)(((5R,8S)-3-(2,6-difluorophenyl)-9,9-dimethyl-5,6,7,8-tetrahydro-5,8-methanocinnolin-8-yl)methyl)carbamate]"
7,0.079 µM,"CC(=O)NC(C)(C)[C@@]12CC[C@@H](c3cc(-c4c(F)cccc4F)nnc31)C2(C)C [Example 321, N-(2-((5R,8S)-3-(2,6-difluorophenyl)-9,9-dimethyl-5,6,7,8-tetrahydro-5,8-methanocinnolin-8-yl)propan-2-yl)acetamide]"
8,0.298 µM,"CN(C)Cc1nc(C[C@@]23CC[C@@H](c4cc(-c5c(F)cccc5F)nnc42)C3(C)C)no1 [Example 66, 1-(3-{[(5R,8R)-3-(2,6-difluorophenyl)-9,9-dimethyl-6,7-dihydro-5,8-methanocinnolin-8(5H)-yl]methyl}-1,2,4-oxadiazol-5-yl)-N,N-dimethylmethanamine]"
9,0.041 µM,"COC[C@@]12CC[C@@H](c3cc(-c4c(F)cccc4Cl)nnc31)C2(C)C [Example 29, (5R,8R)-3-(2-chloro-6-fluorophenyl)-8-(methoxymethyl)-9,9-dimethyl-5,6,7,8-tetrahydro-5,8-methanocinnoline]"
10,0.008 µM,"CCN(C[C@@]12CC[C@@H](c3cc(-c4c(F)cccc4F)nnc31)C2(C)C)C(=O)CO [Example 162, N-(((5R,8S)-3-(2,6-difluorophenyl)-9,9-dimethyl-5,6,7,8-tetrahydro-5,8-methanocinnolin-8-yl)methyl)-N-ethyl-2-hydroxyacetamide]"
11,0.158 µM,"CC1(C)[C@@H]2CC[C@@]1(COCc1ccc(C(N)=O)cc1)c1nnc(-c3ccccc3F)cc12 [Example 72, 4-({[(5S,8S)-3-(2-fluorophenyl)-9,9-dimethyl-6,7-dihydro-5,8-methanocinnolin-8(5H)-yl]methoxy}methyl) benzamide]"
12,0.245 µM,"CC1(C)[C@@H]2CC[C@@]1(CN1CCNC1=O)c1nnc(-c3ccccc3F)cc12 [Example 34, 1-{[(5S,8R)-3-(2-fluorophenyl)-9,9-dimethyl-6,7-dihydro-5,8-methanocinnolin-8(5H)-yl]methyl}imidazolidin-2-one]"
13,0.139 µM,"CCOC[C@]12CC[C@H](c3cc(-c4ccccc4F)nnc31)C2(C)C [Example 25, (5S,8S)-8-(ethoxymethyl)-3-(2-fluorophenyl)-9,9-dimethyl-5,6,7,8-tetrahydro-5,8-methanocinnoline]"

# — patent US9981916B2 (Genentech, Inc., priority 2013, dated 2018)
